Reference: patent US20250241914A1, “BIFUNCTIONAL PHARMACEUTICAL COMPOUNDS” (DE MONTFORT UNIVERSITY, priority 2024, published 2025)

How the values were obtained:
[1] = tested on: M. tuberculosis rifampicin resistant strain RpoBS522L (H37Rv); type: cell-based, Mycobacterium tuberculosis
[2] = tested on: M. tuberculosis rifampicin-resistant strain RpoBS531L; type: cell-based, Mycobacterium tuberculosis

| Structure (SMILES) | Mycobacterium tuberculosis strain MIC90, RpoBS522L H37Rv [1] [µM] | Mycobacterium tuberculosis strain MIC90, RpoBS531L [2] [µM] |
| --- | --- | --- |
| CO[C@H]1/C=C/O[C@@]2(C)Oc3c(C)c(O)c4c(O)c(c(CNCCCn5cc(CCn6cc(F)c(=O)[nH]c6=O)nn5)c(O)c4c3C2=O)NC(=O)/C(C)=C\C=C\[C@H](C)[C@H](C)[C@@H](C)[C@@H](O)[C@@H](C)[C@H](OC(C)=O)[C@@H]1C [Compound 3A] | 0.31 | 0.22 |
| CO[C@H]1/C=C/O[C@@]2(C)Oc3c(C)c(O)c4c(O)c(c(CNCCOCCOCCOCn5cc(CCn6cc(F)c(=O)[nH]c6=O)nn5)c(O)c4c3C2=O)NC(=O)/C(C)=C\C=C\[C@H](C)[C@H](C)[C@@H](C)[C@@H](O)[C@@H](C)[C@H](OC(C)=O)[C@@H]1C [Compound 3B] | 0.32 | 0.23 |
| CO[C@H]1/C=C/O[C@@]2(C)Oc3c(C)c(O)c4c(O)c(c(CNCCOCCOCCOCn5cc(CCCn6cc(F)c(=O)[nH]c6=O)nn5)c(O)c4c3C2=O)NC(=O)/C(C)=C\C=C\[C@H](C)[C@H](C)[C@@H](C)[C@@H](O)[C@@H](C)[C@H](OC(C)=O)[C@@H]1C [Compound 3C] | 0.47 | 0.21 |
| NNC(=O)c1ccncc1 [Isoniazid, reference compound] | 0.29 | 0.55 |
